4 molecules from ChEMBL document CHEMBL1201862, “PubChem BioAssay data set” (2004) can be followed below.

Calls of active or inactive are those of the source.

In general, IC50 refers to the concentration that gives 50% inhibition. The term EC50 denotes the concentration at which the effect is half-maximal. As usually defined, the CC50 is the concentration at which the toxic effect on the cells reaches its halfway point. Usually AC50 stands for the concentration at which the activity in the assay is half-maximal.

Assay [1] deals with T1, Sphingosine 1-phosphate receptor 4 (Homo sapiens, UniProt O95977). As to the kind of experiment: Fluorescence dose response cell-based high throughput screening assay for antagonists of the Sphingosine 1-Phosphate Receptor 4 (S1P4). [Related pubchem assays: 1524 (Confirmation in triplicates.), 1510 (Primary screen.)]. Type of assay: functional.
The nature of assay [2]: viability of PTEN-deleted HCT116 cells – cell-based, HCT116 PTEN knockout, dose response (AID 1047).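 Also: HCT116 colon tumor cells with PTEN knocked out; cells exposed to compound for 60 hours before readout.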 It counts as functional.
For assay [3], the target named is Sphingosine 1-phosphate receptor 1 (Homo sapiens, UniProt P21453). Type of assay: functional.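 Also: Tango beta-arrestin reporter U2OS cells stimulated with S1P near its EC80; inhibitor potency meaning antagonism of receptor activation by the natural agonist.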
The target in assay [4] is T1, Sphingosine 1-phosphate receptor 4. Nature of the assay: Late stage fluorescence dose response cell-based screening assay for antagonists of the Sphingosine 1-Phosphate Receptor 4 (S1P4). [Related pubchem assays: 1524 (Confirmation screen (S1P4 antagonists).), 1510 (Primary screen (S1P4 antagonists).), 1853 (Summary AID (S1P4 antagonists).), 1692 (Dose response screen (S1P4 antagonists).)]. It counts as functional.

Assay [5] can be described thus: viability of HCT116 lacking mutant beta-catenin – cell-based, human colon tumor, dose response (AID 1045).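 Also: HCT116 colon tumor cells with beta catenin knocked out; cells exposed to compound for 60 hours.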 Type of assay: functional.
The target in another assay is Mucolipin-3 (Homo sapiens, UniProt Q8TDD5). As to the kind of experiment: Dose response cell-based high-throughput screening assay for agonists of the transient receptor potential channel ML3 (TRPML3). [Related pubchem assays: 1526, 1424, 1448 ]. It counts as functional.
Another assay concerns the target Ion channel NompC (Danio rerio, UniProt Q7T1G6). Nature of the assay: Fluorescence counterscreen assay for TRPML3 agonists: dose response cell-based high-throughput screening assay to identify agonists of the transient receptor potential channel N1 (TRPN1). [Related pubchem assays: 1526, 1424, 1448 ]. It counts as functional. (In general: Counterscreens check selectivity or assay interference.)

The next assay deals with HeLa. Nature of the assay: Cytotoxicity counterscreen assay for transcriptional activators of heat shock protein 70 (Hsp70). [Related pubchem assays: 1203, 1252 ]. Type of assay: functional. The conditions noted are these: Homo sapiens.
Assay [6] is described as follows: Trypanosoma cruzi growth suppression in host cells – NIH3T3 host cells, beta-gal luminescence, confirmation (AID 2044).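 Also: intracellular parasites grown in NIH/3T3 mouse fibroblasts as host cells; luminescent beta-galactosidase reporter signal from transgenic T. cruzi replicating inside host cells; inhibitors lower the luminescence signal.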 It counts as functional, cell-based.
Assay [7] in a line: reduction of Shn3 3'UTR-driven luciferase in osteoblasts – cell-based, Clone20 osteoblasts, firefly luciferase, cherry-picked, dose response (AID 624132).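 Also: firefly luciferase luminescence from reporter carrying the Shn3 3'UTR in osteoblasts.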 It counts as functional.
The target in the next assay is Beta Lactamase (Pseudomonas aeruginosa, UniProt Q932Y6). As to the kind of experiment: BLA reporter interference, concentration series – BLA reporter cells, FRET fluorescence, artefact control for TLR9-MyD88 binding inhibitor project, dose response (AID 588341).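 Also: cell based assay in CHO-K1 cells stably expressing beta-lactamase.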 Type of assay: cell-based.
Assay [8] can be described thus: activation of miR-122 Renilla sensor silencing – cell-based, Huh7 psiCHECK-miR122, Renilla luciferase, cherry-picked, dose response (AID 651956).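 Also: huh7 hepatoma cells stably carrying a psiCHECK-2 miR-122 sensor plasmid; renilla luciferase signal reporting endogenous miR-122 activity after 48 h compound exposure.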 Type of assay: functional.
Assay [9] addresses T2, Replicative DNA helicase DnaB (Mycobacterium tuberculosis, UniProt P9WMR3).
T2 sequence (P9WMR3 whole entry): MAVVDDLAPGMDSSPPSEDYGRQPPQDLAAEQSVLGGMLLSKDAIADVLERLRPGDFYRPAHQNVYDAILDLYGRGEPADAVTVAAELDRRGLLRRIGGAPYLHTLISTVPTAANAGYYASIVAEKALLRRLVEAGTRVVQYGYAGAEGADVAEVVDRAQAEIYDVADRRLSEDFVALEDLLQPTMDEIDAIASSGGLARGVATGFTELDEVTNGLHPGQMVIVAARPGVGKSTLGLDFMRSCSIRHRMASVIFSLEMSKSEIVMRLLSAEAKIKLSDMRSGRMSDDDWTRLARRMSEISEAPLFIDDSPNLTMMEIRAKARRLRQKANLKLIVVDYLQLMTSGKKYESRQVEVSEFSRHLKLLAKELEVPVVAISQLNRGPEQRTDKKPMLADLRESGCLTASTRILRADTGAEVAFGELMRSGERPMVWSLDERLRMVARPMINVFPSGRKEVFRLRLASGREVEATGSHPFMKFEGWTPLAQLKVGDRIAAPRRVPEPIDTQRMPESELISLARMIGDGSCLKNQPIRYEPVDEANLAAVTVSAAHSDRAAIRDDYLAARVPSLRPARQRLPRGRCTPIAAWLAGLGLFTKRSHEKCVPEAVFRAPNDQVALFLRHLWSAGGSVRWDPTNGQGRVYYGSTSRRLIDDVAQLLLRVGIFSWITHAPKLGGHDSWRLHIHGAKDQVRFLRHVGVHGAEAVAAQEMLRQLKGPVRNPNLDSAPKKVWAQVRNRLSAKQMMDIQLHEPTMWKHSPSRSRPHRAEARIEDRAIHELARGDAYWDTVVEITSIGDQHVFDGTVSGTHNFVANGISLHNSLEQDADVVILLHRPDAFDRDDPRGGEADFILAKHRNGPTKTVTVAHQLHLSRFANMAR
Nature of the assay: DnaB intein splicing inhibitors, dose response, biochemical, cell-free fluorescence (AID 449749). Type of assay: functional.

Assay [10] has as its target T3, Heat shock factor protein 1 (Mus musculus, UniProt P38532).
T3 sequence (P38532 whole entry): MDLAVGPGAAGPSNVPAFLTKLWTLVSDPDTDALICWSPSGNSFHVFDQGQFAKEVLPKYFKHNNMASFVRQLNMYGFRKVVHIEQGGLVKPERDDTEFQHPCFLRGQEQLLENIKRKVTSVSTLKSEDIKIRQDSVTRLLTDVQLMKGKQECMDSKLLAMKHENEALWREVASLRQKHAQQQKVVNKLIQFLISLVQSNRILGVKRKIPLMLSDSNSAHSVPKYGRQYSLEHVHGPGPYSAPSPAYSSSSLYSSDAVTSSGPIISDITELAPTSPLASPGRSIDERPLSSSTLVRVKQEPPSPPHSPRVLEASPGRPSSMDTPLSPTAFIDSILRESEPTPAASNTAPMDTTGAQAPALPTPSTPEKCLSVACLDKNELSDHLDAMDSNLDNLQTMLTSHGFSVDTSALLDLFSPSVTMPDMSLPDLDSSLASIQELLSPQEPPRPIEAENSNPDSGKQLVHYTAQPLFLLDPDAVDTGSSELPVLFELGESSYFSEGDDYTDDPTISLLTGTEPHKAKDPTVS
Nature of the assay: decrease of HSF1-responsive luciferase luminescence – cell-based, NIH3T3, dose retest, confirmation (AID 2382).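 Also: NIH3T3 fibroblasts with HSF1-driven luciferase reporter stressed by proteasome inhibitor MG132; luminescence from HSF1-driven luciferase expression after 8 hours of MG132 stress.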 Type of assay: functional.

The nature of assay [11]: general mammalian cell viability loss – inhibitor set, cherry-pick, set 2, cytotoxicity control for miR-122 modulator project, dose response (AID 720697). Type of assay: functional, cell-based.
A further assay addresses T4, Protein RecA (Mycobacterium tuberculosis, UniProt P9WHJ3).
T4 sequence (P9WHJ3 whole entry): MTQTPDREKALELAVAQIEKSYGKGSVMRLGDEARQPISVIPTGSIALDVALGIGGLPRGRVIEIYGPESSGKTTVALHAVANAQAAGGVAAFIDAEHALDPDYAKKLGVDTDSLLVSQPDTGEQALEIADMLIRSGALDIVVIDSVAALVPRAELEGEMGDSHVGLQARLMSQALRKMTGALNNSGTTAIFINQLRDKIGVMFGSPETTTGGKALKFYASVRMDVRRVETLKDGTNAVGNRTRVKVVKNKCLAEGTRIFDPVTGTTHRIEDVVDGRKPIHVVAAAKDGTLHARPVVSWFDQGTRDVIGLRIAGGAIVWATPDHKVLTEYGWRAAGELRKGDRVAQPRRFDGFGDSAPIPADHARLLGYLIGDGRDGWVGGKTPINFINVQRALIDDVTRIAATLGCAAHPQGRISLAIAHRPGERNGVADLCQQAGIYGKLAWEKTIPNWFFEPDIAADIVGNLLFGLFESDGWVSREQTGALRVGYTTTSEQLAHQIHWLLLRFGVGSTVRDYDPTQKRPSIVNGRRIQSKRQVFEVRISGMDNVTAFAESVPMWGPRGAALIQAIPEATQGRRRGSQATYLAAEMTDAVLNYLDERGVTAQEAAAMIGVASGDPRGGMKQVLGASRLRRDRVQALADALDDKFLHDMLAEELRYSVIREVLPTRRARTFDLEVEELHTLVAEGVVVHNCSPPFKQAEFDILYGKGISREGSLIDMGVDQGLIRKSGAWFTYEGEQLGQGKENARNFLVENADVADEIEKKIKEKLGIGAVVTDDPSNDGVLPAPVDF
As to the kind of experiment: Fluorescence Cell-Free Homogeneous Dose Retest to Identify Inhibitors of RecA-Intein Splicing Activity. [Related pubchem assays (depositor defined):AID2097, AID2223, AID489010, AID492950]. Type of assay: functional.

Assay [12] in a line: Luminescent dose response cell-based high throughput screening assay for inhibitors of the Janus kinase 2 mutant JAK2V617F. [Related pubchem assays: 1446 (Primary screen.), 1521 (Confirmation assay.), 1486 (Counter screen.)]. It counts as functional.
A short description of assay [13]: NIH-3T3 fibroblast cytotoxicity, dose response, cytotoxicity control, cell-based, fluorescence, Alamar Blue, secondary assay (AID 2327).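 Also: NIH-3T3 mouse fibroblasts cultured with fluconazole at 8 µg/mL.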 It counts as functional.
The nature of assay [14]: NIH3T3 cell viability loss – ATP luminescence, mouse fibroblasts, counter-screen, dose response (AID 2010).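 Also: cells exposed to compound for about 90 hours before reading.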 Type of assay: functional, cell-based.
Assay [15] in a line: fluconazole-exposed Candida albicans growth modulators – fluorescence, retest, confirmation (AID 2467). It counts as functional, cell-based.
The nature of assay [16]: general mammalian cell viability loss – activator set, cherry-pick, cytotoxicity control for miR-122 modulator project, dose response (AID 720690).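 Also: HEK293T human cells scored for general mammalian cytotoxicity.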 It counts as functional, cell-based.
In assay [17] the target is Sphingosine 1-phosphate receptor 2 (Homo sapiens, UniProt O95136). As to the kind of experiment: Dose Response Cell Based Assay for Antagonists of the S1P2 Receptor. [Related pubchem assays: 856, 736 ]. It counts as functional.
Another assay has as its system INS1. Nature of the assay: INS-1E survival protection against cytokine death – cell-based, luminescence, retest, dose response (AID 449756).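 Also: cell death triggered by IL-1 beta plus TNF-alpha plus IFN-gamma mixture; protective hits raise ATP signal compared with cytokine alone wells.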 Conditions: Rattus norvegicus. It counts as functional.
Assay [18] is described as follows: non-specific 3'UTR reporter inhibition in Clone20-Shn3RL – cell-based, Renilla luciferase, cherry-picked, counter-screen for Shn3 inhibitor project, dose response (AID 624133). Type of assay: functional.
A further assay concerns CHO. As to the kind of experiment: CHO cell viability loss, potency – luminescence, cytotoxicity control for TLR9-MyD88 binding inhibitor project, dose response (AID 588339).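 Also: CHO cells stably coexpressing TLR9 and MyD88 fusions from primary screen; compound exposure lasted 48 hours before viability readout.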 Type of assay: functional, cell-based, hamster. The conditions noted are these: Cricetulus griseus.
Assay [19] can be described thus: Intein inhibitors as potential Tuberculosis drugs, a cytotoxicity screen. [Related pubchem assays (depositor defined):AID2221, AID2223, AID434968, AID435010, AID449749, AID449750, AID489010]. Type of assay: functional.
Assay [20] in a line: loss of viability in HepG2 cells – cell-based, CellTiter-Glo, cherry-picked, cytotoxicity control for Shn3 inhibitor project, dose response (AID 624134). Type of assay: functional.
The target of a further assay is T5, NADPH oxidase 1 (Homo sapiens, UniProt Q9Y5S8).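 Also: Cell-based assay with luminescence read-out, IC50 derived from inhibitor dose-response curves; intracellular ROS from endogenous NOX1 in intact HT29 colon cancer cells; potency of inhibitors that lower the ROS luminescence signal.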
T5 sequence (Q9Y5S8 whole entry): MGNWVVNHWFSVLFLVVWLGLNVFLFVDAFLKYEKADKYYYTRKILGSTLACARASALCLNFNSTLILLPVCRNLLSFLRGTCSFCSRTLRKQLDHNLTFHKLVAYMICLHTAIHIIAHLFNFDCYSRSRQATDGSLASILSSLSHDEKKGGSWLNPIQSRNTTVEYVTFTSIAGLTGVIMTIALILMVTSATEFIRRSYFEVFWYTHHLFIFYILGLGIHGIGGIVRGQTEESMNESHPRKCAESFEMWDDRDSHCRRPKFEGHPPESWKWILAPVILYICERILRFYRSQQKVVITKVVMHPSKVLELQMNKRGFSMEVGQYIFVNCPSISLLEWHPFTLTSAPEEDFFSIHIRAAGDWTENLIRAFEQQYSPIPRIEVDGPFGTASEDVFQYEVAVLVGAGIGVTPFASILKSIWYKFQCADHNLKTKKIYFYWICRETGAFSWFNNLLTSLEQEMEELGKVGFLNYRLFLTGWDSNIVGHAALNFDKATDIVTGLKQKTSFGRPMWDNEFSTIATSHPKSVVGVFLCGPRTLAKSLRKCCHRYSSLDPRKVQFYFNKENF
Type of assay: functional, cell-based.

T1 sequence (O95977 whole entry): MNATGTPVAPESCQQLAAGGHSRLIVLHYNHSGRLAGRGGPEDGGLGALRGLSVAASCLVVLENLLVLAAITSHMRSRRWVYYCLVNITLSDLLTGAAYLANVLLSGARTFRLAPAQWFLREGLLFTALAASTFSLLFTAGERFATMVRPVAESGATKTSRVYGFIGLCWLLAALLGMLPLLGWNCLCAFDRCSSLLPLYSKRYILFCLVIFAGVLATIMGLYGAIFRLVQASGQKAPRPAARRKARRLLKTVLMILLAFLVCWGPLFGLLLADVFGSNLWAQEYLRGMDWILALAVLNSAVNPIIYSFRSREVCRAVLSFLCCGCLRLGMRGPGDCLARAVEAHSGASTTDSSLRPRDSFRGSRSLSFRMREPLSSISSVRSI
Chain of Sphingosine 1-phosphate receptor 1 (P21453 whole entry): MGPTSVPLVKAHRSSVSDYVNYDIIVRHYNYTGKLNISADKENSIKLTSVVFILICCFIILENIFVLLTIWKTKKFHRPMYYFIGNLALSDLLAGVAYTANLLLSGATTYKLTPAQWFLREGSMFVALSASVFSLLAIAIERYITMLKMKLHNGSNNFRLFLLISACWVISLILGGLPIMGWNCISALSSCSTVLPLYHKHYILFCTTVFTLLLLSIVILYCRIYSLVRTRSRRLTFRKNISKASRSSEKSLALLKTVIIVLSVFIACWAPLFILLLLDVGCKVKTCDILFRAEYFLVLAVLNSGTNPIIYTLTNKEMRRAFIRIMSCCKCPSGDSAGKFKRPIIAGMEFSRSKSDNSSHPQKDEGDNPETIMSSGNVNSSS
Chain of Sphingosine 1-phosphate receptor 2 (O95136 whole entry): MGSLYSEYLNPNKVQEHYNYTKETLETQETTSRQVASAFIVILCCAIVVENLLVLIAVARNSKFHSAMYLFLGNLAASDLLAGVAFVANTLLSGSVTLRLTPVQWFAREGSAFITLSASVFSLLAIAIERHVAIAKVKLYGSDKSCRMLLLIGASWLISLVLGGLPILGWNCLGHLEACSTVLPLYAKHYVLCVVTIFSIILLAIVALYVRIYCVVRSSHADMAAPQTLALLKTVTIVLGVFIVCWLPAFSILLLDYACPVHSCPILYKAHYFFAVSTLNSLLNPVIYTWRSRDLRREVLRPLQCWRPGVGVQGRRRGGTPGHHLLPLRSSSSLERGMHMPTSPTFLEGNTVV
Chain of Mucolipin-3 (Q8TDD5 whole entry): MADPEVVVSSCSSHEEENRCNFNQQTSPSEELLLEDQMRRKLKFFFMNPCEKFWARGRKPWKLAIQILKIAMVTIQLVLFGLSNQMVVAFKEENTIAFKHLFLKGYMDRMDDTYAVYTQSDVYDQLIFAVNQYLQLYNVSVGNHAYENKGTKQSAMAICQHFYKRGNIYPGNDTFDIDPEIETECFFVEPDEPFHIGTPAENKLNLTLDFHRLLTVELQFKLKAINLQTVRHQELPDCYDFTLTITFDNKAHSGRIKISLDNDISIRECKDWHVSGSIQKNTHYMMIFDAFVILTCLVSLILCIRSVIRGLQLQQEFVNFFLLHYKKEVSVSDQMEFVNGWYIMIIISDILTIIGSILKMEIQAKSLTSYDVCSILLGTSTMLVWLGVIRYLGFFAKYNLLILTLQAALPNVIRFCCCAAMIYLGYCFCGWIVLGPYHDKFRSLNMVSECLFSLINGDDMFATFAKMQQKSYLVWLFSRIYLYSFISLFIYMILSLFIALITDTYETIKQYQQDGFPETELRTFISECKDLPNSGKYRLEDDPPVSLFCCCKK
Chain of Ion channel NompC (Q7T1G6 whole entry): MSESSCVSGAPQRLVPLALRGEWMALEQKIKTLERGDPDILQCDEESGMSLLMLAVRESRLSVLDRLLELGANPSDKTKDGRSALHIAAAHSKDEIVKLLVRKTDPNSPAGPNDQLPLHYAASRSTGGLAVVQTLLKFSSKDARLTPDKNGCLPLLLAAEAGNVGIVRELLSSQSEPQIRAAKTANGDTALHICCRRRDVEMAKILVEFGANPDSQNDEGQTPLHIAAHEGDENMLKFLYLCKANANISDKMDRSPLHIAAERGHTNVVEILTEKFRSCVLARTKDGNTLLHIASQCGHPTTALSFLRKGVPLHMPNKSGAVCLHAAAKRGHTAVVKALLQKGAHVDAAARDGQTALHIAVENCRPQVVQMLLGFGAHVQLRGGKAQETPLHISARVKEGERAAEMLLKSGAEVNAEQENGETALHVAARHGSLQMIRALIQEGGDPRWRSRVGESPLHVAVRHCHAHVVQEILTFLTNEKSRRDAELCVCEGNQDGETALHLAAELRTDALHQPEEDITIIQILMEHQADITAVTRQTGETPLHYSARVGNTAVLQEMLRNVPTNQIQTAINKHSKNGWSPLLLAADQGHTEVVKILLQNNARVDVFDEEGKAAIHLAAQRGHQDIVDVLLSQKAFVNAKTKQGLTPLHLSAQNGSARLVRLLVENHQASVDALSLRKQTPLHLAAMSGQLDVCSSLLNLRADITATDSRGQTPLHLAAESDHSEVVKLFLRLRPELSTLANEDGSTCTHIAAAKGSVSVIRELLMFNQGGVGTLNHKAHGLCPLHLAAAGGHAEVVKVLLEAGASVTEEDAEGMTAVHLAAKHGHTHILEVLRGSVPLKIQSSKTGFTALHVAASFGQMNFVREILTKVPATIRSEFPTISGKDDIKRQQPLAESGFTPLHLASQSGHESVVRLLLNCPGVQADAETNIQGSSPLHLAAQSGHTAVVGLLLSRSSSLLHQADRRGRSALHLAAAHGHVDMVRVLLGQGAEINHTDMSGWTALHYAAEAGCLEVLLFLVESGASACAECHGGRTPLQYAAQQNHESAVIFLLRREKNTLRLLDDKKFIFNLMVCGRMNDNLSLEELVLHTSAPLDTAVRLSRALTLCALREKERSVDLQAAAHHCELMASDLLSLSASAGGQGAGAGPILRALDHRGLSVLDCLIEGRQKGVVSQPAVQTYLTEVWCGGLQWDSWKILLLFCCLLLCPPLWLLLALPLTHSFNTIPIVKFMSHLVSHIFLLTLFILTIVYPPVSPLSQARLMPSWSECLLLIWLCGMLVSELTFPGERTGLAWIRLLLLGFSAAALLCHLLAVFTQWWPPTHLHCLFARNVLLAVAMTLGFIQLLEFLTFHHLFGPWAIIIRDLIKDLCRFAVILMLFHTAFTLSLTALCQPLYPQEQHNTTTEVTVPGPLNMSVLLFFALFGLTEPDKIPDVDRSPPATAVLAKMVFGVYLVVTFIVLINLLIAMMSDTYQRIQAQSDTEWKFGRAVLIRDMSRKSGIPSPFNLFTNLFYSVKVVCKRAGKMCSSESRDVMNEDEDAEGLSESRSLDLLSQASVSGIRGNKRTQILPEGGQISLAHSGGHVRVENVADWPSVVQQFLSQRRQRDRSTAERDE
Chain of Beta Lactamase (Q932Y6 whole entry): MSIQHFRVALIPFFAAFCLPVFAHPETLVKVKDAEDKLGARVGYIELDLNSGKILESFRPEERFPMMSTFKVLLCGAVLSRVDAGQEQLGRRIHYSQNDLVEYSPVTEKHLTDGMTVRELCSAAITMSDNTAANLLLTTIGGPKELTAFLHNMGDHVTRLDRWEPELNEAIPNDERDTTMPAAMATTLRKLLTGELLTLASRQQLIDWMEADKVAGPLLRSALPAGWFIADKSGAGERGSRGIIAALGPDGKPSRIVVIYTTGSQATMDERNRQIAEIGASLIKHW

For the molecule `O=C(OCn1ncc(Br)c(Br)c1=O)c1c(F)cccc1F`, the IC50 is 0.888 µM (active) in [1], 7.96 µM (active) in [3] and 88.8 µM (not active) in [4]. Further, the EC50 in assay [2] was 1.78 µM (active); in [5], 1.82 µM (active).
Consider `CCN(CC)C(=S)SCC(=O)NC12CC3CC(CC(C3)C1)C2`, for which the values for the EC50 on Mucolipin-3 and at Ion channel NompC were 14.7 µM (not active) and > 29.9 µM (not active), respectively.
As to `O=C(OCn1ncc(Cl)c(Cl)c1=O)c1ccccc1Cl`, the CC50 with HeLa was > 11 µM (not active); in [19], 5.38 µM (active). Besides, the EC50 was 1.04 µM (active) in assay [6]; 1.99 µM (active) in assay [10]; 0.669 µM (active) on Protein RecA; 2.57 µM (inconclusive) in assay [13]; 1.07 µM (active) in assay [14]; > 38 µM (not active) in assay [15]. Moreover, the AC50 in assay [7] is 3.56 µM (active); in assay [8], 11.2 µM (active); in assay [9], 3.32 µM (active); in assay [11] it was 4.39 µM (active); in [16], 4.89 µM (active); with INS1, 5.37 µM (active). Moreover, the AC50 in [18] is 3.56 µM (active); in assay [20], 27.3 µM (active). Further, the IC50 at Beta Lactamase is > 49.8 µM (inactive); in [12], 0.401 µM (active); in [17], 3.15 µM (active); in the assay with CHO, 1.64 µM (active).
Turning to `OCCN1CCN(CCCN2c3ccccc3Sc3ccc(C(F)(F)F)cc32)CC1` [FLUPHENAZINE], on NADPH oxidase 1, the IC50 is > 17 µM (not active).
